Assay results reported in US8148387B2, “AKT and P70 S6 kinase inhibitors” (Eli Lilly and Company, priority 2008, dated 2012).
Values joined by “and” are separate entries in the source; they are usually repeats but may differ in a detail not shown here. Identical values can stand only once.

Tests used:
A2780 [1] = experiment: Combination studies, fixed ratio method, cell proliferation, A2780; type: cell-based
Source text: (§1) The combination studies use the fixed ratio method, where the compound of the present invention and the other therapeutic agent are present in fixed ratios of concentrations corresponding to the IC50 equivalents of single agents. The readout for the combination studies is cell proliferation in respective cell lines using Cell Titer Glo reagents. Controls are processed similarly but without the compound of the present invention or the other therapeutic agent. Analysis of the data is done according to the method described in Zhao et. al., Clinical Cancer Research, 10, 7994-8004 (2004) utilizing a web based tool. A combination index is calculated for a range of cell proliferation inhibition activity levels according to the equation below. Combination Index at activity level x=[Concentration of other therapeutic agent in the combination at the activity level x/ICx of the other therapeutic agent]+[Concentration of the compound of the present invention in the combination at the activity level x/ICx of the compound of the present invention] For clarity, Combination index values at 50% inhibition are summarized below.

786-O = experiment: Cell Proliferation Assay (CellTiter-Glo), 786-O; type: cell-based; settings: Homo sapiens, 786-0, 72 hr
Protocol: (§2) The proliferation assay uses the CellTiter-Glo Luminescent Cell Viability Assay System (commercially available from Promega) to determine the cell number of viable cells in culture based on quantitation of the ATP present, which signals the presence of metabolically active cells.
(§3) The cells are plated in 96-well plate at 2000 cells/well in volume of 50 μL medium (DMEM, 10% FBS, 25 mM HEPES, 1.0 mM Sodium Pyruvate, and 0.1 mM Non Essential Amino Acids) except column 1 with medium only as blank control. The plates are incubated overnight at 37° C. and 5% CO2. On the next day, compound stocks are prepared at 40 mM in DMSO (500×) and serially diluted in DMSO in a 96-well round bottom polypropylene plate. Compounds are assayed at 10 concentrations in duplicate, 4 compounds per plate.
(§4) 4 μL of the serial DMSO dilutions are transferred to a 96 deep-well plate and 1 mL complete culture medium is added to create 2× stock for dosing. 50 μL of each 2× dosing stock is gently transferred to the corresponding well of the cell plate resulting in a 0.2% DMSO concentration and a 100 μL final volume. […] medium are added to the Control columns (Column 12) and background columns (Column 1). Cells are incubated with compound for at 37° C., 5% CO2 for 72 hr. […]

A2780 [2] = experiment: Cell Proliferation Assay (CellTiter-Glo), A2780; type: cell-based; settings: Homo sapiens; A2780, 72 hr
Protocol: as §2, §3, §4

PC3 = experiment: Cell Proliferation Assay (CellTiter-Glo), PC3; type: cell-based; settings: Homo sapiens, PC-3; PC3, 72 hr
Protocol: as §2, §3, §4

Calu6 = experiment: Combination studies, fixed ratio method, cell proliferation, Calu6; type: cell-based
Source text: as §1

69AR = experiment: Cell Proliferation Assay (CellTiter-Glo), 69AR; type: cell-based; settings: 72 hr
Protocol: as §2, §3, §4

BT474 = experiment: Cell Proliferation Assay (CellTiter-Glo), BT474; type: cell-based; settings: Homo sapiens, BT-474; BT474, 72 hr
Protocol: as §2, §3, §4

786-0 = experiment: Combination studies, fixed ratio method, cell proliferation, 786-0; type: cell-based; settings: combination with Rapamycin
Source text: as §1

HCT116 [3] = experiment: Cell Proliferation Assay (CellTiter-Glo), HCT116; type: cell-based; settings: Homo sapiens, HCT-116; HCT116, 72 hr
Protocol: as §2, §3, §4

H1155 [4] = experiment: Cell Proliferation Assay (CellTiter-Glo), H1155; type: cell-based; settings: Homo sapiens, NCI-H1155; H1155, 72 hr
Protocol: as §2, §3, §4

H69 = experiment: Cell Proliferation Assay (CellTiter-Glo), H69; type: cell-based; settings: Homo sapiens, NCI-H69; H69, 72 hr
Protocol: as §2, §3, §4

HCT116 [5] = experiment: Combination studies, fixed ratio method, cell proliferation, HCT116; type: cell-based
Source text: as §1

ACHN = experiment: Combination studies, fixed ratio method, cell proliferation, ACHN; type: cell-based; settings: combination with Rapamycin
Source text: as §1

H1155 [6] = experiment: Combination studies, fixed ratio method, cell proliferation, H1155; type: cell-based
Source text: as §1

NCIH460 = experiment: Combination studies, fixed ratio method, cell proliferation, NCIH460; type: cell-based
Source text: as §1

OPM-2 = experiment: Cell Proliferation Assay (CellTiter-Glo), OPM-2; type: cell-based; settings: Homo sapiens; OPM-2, 72 hr
Protocol: as §2, §3, §4

CAKI-1 = experiment: Combination studies, fixed ratio method, cell proliferation, CAKI-1; type: cell-based; settings: combination with Rapamycin
Source text: as §1

U87MG = experiment: Cell Proliferation Assay (CellTiter-Glo), U87MG; type: cell-based; settings: Homo sapiens, U-87 MG, 72 hr
Protocol: as §2, §3, §4

human HERG K+ channel = biological target: T1, human HERG K+ channel (Homo sapiens, UniProt Q12809); experiment: HERG Assay, [3H]astemizole radioligand binding; settings: transfected HEK-293 cell membranes, 2 nM [3H]astemizole
T1 construct: expressed in transfected cells; host or cells: HEK-293
T1 sequence (Q12809 whole entry): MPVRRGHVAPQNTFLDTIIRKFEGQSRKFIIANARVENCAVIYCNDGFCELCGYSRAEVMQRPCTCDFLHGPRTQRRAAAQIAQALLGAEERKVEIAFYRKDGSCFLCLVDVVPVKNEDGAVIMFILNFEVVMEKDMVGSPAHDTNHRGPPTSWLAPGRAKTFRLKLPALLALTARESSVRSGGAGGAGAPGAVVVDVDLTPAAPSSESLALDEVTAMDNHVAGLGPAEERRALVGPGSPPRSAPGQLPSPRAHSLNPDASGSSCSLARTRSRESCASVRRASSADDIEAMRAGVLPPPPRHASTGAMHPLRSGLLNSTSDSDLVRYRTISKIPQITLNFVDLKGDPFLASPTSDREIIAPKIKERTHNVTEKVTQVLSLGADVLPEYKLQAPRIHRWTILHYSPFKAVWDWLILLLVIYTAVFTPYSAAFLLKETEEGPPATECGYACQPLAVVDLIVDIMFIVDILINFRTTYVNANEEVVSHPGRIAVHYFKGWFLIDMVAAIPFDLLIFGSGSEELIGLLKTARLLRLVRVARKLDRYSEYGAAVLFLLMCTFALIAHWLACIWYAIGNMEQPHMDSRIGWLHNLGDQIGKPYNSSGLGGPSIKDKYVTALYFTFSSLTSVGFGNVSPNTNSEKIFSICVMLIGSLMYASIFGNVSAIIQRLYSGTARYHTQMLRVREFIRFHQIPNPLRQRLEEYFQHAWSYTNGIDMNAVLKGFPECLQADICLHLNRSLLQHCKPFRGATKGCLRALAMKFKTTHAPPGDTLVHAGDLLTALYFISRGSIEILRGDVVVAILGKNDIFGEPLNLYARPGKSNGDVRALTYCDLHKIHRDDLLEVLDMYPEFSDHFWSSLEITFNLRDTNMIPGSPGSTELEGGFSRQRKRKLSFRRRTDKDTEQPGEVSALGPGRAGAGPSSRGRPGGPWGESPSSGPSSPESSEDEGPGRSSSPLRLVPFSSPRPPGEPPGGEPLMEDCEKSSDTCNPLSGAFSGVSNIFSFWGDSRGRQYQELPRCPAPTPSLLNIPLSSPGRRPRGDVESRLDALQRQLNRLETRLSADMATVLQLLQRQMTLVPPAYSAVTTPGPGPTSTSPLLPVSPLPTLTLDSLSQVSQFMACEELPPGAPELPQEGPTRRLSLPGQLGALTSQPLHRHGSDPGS
Protocol: Evaluation of the affinity of compounds for the human HERG K^+ channel in transfected HEK-293 cells is determined in a radioligand binding assay. Cell membrane homogenates (40 μg protein) are incubated for 75 min at 22° C. with 2 nM [^3H]astemizole in the absence or presence of the test compound in a buffer containing 50 mM Tris-HCl (pH 7.4), 10 mM KCl, 1.2 mM MgCl2 and 0.1% Bovine serum albumin (BSA). Nonspecific binding is determined in the presence of 10 μM astemizole. Following incubation, the samples are filtered rapidly under vacuum through glass fiber filters (GF/B, Packard) presoaked with 0.3% PEI and rinsed several times with ice-cold 50 mM Tris-HCl using a 96-sample cell harvester (Unifilter, Packard). The filters are dried then counted for radioactivity in a scintillation counter (Topcount, Packard) using a scintillation cocktail (Microscint 0, Packard). The results are expressed as a percent inhibition of the control radioligand specific binding. The standard reference compound is astemizole, which is tested in each experiment at several concentrations to obtain a competition curve from which its IC50 is calculated. (Finalayson et al, [^3H]dofetilide binding in SHSYSY and HEK293 cells expressing a HERG-like K^+ channels, Eur. J. Pharmacol., 412: 203 (2001)).

SMILES: CN(C)CCn1cc(-c2ccc(F)c(C(F)(F)F)c2)nc1C1CCN(c2ncnc3c2CC(=O)N3)CC1 [Example 45, 4-{4-[1-(2-Dimethylamino-ethyl)-4-(4-fluoro-3-trifluoromethyl-phenyl)-1H-imidazol-2-yl]piperidin-1-yl}-5,7-dihydro-pyrrolo[2,3-d]-pyrimidin-6-one]
- COMBINATION INDEX AT 50% INHIBITION (A2780 [1]; combination with Cisplatin): 1.04 and 0.64
- COMBINATION INDEX AT 50% INHIBITION (A2780 [1]; combination with Doxorubicin•HCl): 0.65 and 0.96
- IC50 (786-O): 3.4 µM
- IC50 (A2780 [2]): 5.9 µM
- IC50 (PC3): 6.2 µM
- COMBINATION INDEX AT 50% INHIBITION (Calu6; combination with Cisplatin): 0.57
- COMBINATION INDEX AT 50% INHIBITION (Calu6; combination with Docetaxel): 0.94
- COMBINATION INDEX AT 50% INHIBITION (Calu6; combination with Erlotinib): 0.10
- COMBINATION INDEX AT 50% INHIBITION (Calu6; combination with Gemcitabine): 1.13
- COMBINATION INDEX AT 50% INHIBITION (Calu6; combination with Tasisulam): 1.19
- IC50 (69AR): 9.4 µM
- IC50 (BT474): 7.9 µM
- COMBINATION INDEX AT 50% INHIBITION (786-0): 0.41
- IC50 (HCT116 [3]): 7.5 µM
- IC50 (H1155 [4]): 4.9 µM
- IC50 (H69): 6.3 µM
- COMBINATION INDEX AT 50% INHIBITION (HCT116 [5]; combination with Cetuximab): 2.02
- COMBINATION INDEX AT 50% INHIBITION (HCT116 [5]; combination with Irinotecan): 0.82
- COMBINATION INDEX AT 50% INHIBITION (ACHN): 0.12
- COMBINATION INDEX AT 50% INHIBITION (H1155 [6]; combination with Cisplatin): 0.58
- COMBINATION INDEX AT 50% INHIBITION (H1155 [6]; combination with Erlotinib): 0.43
- COMBINATION INDEX AT 50% INHIBITION (H1155 [6]; combination with Gemcitabine): 0.87
- COMBINATION INDEX AT 50% INHIBITION (NCIH460; combination with Cisplatin): 0.56
- COMBINATION INDEX AT 50% INHIBITION (NCIH460; combination with Docetaxel): 0.67
- COMBINATION INDEX AT 50% INHIBITION (NCIH460; combination with Erlotinib): 0.38
- COMBINATION INDEX AT 50% INHIBITION (NCIH460; combination with Gemcitabine): 0.86
- COMBINATION INDEX AT 50% INHIBITION (NCIH460; combination with Pemetrexed): 0.97
- IC50 (OPM-2): 2.3 µM
- COMBINATION INDEX AT 50% INHIBITION (CAKI-1): 0.33
- IC50 (U87MG): > 10 µM

SMILES: O=C1Cc2c(ncnc2N2CCC(c3nc(-c4ccc(F)c(F)c4)cn3CCN3CCCC3)CC2)N1 [Example 37, 4-{4-[4-(3,4-Difluoro-phenyl)-1-(2-pyrrolidin-1-yl-ethyl)-1H-imidazol-2-yl]-piperidin-1-yl}-5,7-dihydro-pyrrolo[2,3-d]pyrimidin-6-one]
- IC50 (human HERG K+ channel): 13.9 µM
